Results reported in patent publication US11850220B2 (Augusta University Research Institute, Inc., priority 2020, dated 2023).

Columns and labels:
Format in all cases: in vivo
[1] = tested on: acetic acid-induced abdominal writhing; test: acetic acid-induced abdominal writhing technique (peripheral analgesic); details: for Potency: Relative to indomethacin; for % Inhibition/protection / Writing reflex ± SEM: in vivo; for % Inhibition/protection: test concentration or dose not given here; for Writing reflex ± SEM: test concentration or dose not given here
[2] = tested on: animal gastric mucosa; test: ulcerogenic liability; details: same dose as anti-inflammatory testing
[3] = tested on: carrageenan-induced paw edema; test: carrageenan-induced paw edema technique (anti-inflammatory); for Observed (1/property): test concentration or dose not given here; for Potency (% Inhibition relative to indomethacin at 3 h effect): test concentration or dose not given here
Source text: Anti-inflammatory properties of the ibuprofen-amino acid conjugate (5a-j) and ibuprofen-amino acid-4-aminophenol conjugates 7a-j were studied by the standard carrageenan-induced paw edema technique (Naumov, R. N. et al., Bioorg. Med. Chem. Lett. 2015, 25, 2314-2320; Tiwari, A. D. et al., Org. Biomol. Chem. 2014, 12, 7238-7249).

[4] = tested on: hot plate; test: hot plate technique (central analgesic); details: for Potency: Relative to indomethacin at 120 min.

SMILES	Potency [1]	% Inhibition/protection [1] [%]	Writing reflex ± SEM [1]	% inhibition of edema ([3]; 1 h) [%]	Mean edema thickness ([3]; 1 h) [mm]	% inhibition of edema ([3]; 2 h) [%]	Mean edema thickness ([3]; 2 h) [mm]	% inhibition of edema ([3]; 3 h) [%]	Mean edema thickness ([3]; 3 h) [mm]	% inhibition of edema ([3]; 4 h) [%]	Mean edema thickness ([3]; 4 h) [mm]	% inhibition of edema ([3]; 24 h) [%]	Mean edema thickness ([3]; 24 h) [mm]	% protection ([4]; After 30 min.)	Latency period ± SEM ([4]; After 30 min.) [s]	% protection ([4]; After 60 min.)	Latency period ± SEM ([4]; After 60 min.) [s]	% protection ([4]; After 90 min.)	Latency period ± SEM ([4]; After 90 min.) [s]	% protection ([4]; After 120 min.)	also measured
CC(C)Cc1ccc(C(C)C(=O)O)cc1 (stereo not shown) [Ibuprofen, reference compound]	93	50.8	47.9 ± 2.1	25	0.92 ± 0.02	37	0.95 ± 0.03	71	0.38 ± 0.01	49	0.64 ± 0.02	32	0.13 ± 0.01	(25.2) %	3.03 ± 0.04	(30.5) %	2.91 ± 0.02	(40.5) %	3.09 ± 0.04	(50.2) %	% Incidence of ulcer divided by 10 [2]: 3.33; Average of ulcer number [2]: 0.33; Average severity of ulcer [2]: 0.67; Number of animals with ulcer [2]: 2/6; Latency period ± SEM ([4]; After 120 min.): 3.29 ± 0.03 s; Potency [4]: 89
COc1ccc2c(c1)c(CC(=O)O)c(C)n2C(=O)c1ccc(Cl)cc1 [Indomethacin, reference compound]	100	54.9	43.9 ± 1.9	44	0.69 ± 0.05	45	0.83 ± 0.04	80	0.26 ± 0.03	66	0.43 ± 0.05	53	0.09 ± 0.02	(30.6) %	3.16 ± 0.02	(35.4) %	3.02 ± 0.04	(49.5) %	3.29 ± 0.01	(56.6) %	% Incidence of ulcer divided by 10 [2]: 10; Average of ulcer number [2]: 2; Average severity of ulcer [2]: 1.67; Number of animals with ulcer [2]: 6/6; Ulcer index [2]: 13.67; Potency (% Inhibition relative to indomethacin at 3 h effect) [3]: 100%; % protection ([4]; After 0 min.): (6.4) %; Latency period ± SEM ([4]; After 0 min.): 3.15 ± 0.03 s; Latency period ± SEM ([4]; After 120 min.): 3.43 ± 0.05 s; Potency [4]: 100
CSCC[C@H](NC(=O)C(C)c1ccc(CC(C)C)cc1)C(=O)O (stereo partly drawn) [Compound 5i, (2-(4-Isobutylphenyl)propanoyl)-L-methionine]	40	22.2	75.7 ± 1.9	24	0.93 ± 0.04	54	0.69 ± 0.05	45	0.71 ± 0.04	12	1.10 ± 0.06	79	0.04 ± 0.01	(32.2) %	3.20 ± 0.03	(51.1) %	3.35 ± 0.06	(61.4) %	3.55 ± 0.07	(13.2) %	Observed (1/property) ([3]; 1/(% inhibition of edema thickness at 3 h effect), Table 7): 0.02222; Observed property ([3]; % inhibition of edema thickness at 3 h effect, Table 7): 45%; Observed property ([3]; anti-inflammatory property (% inhibition of edema at 3 h), Table 8): 45%; Potency (% Inhibition relative to indomethacin at 3 h effect) [3]: 56%; Latency period ± SEM ([4]; After 120 min.): 2.48 ± 0.04 s; Potency [4]: 23
